From patent US20230312556A1, “ARYLAMIDE COMPOUND, PHARMACEUTICAL COMPOSITION COMPRISING SAME, AND PREPARATION METHOD THEREFOR AND USE THEREOF” (SICHUAN KELUN-BIOTECH BIOPHARMACEUTICAL CO., LTD., priority 2020, published 2023)

Key:
[1] = tested on: human hepatocellular carcinoma cell HepG2 (NRAS-Q61K mutation); experiment: Cancer cell proliferation inhibition assay, HepG2; assay type: cell-based; details: 72 h incubation, Cell Titer Glo
Excerpt: (§1) The inhibitory effects of the compounds of the present invention on cancer cell proliferation were further evaluated by testing the effects of the compounds of the present invention on the growth of cancer cells.
(§2) In this example, human melanoma cell A375 (BRAF-V600E mutation, purchased from the Cell Bank of the Chinese Academy of Sciences) and human hepatocellular carcinoma cell HepG2 (NRAS-Q61K mutation, purchased from ATCC, USA) were employed.
(§3) In this example, the test compounds at various concentrations (100000 nM, 30000 nM, 10000 nM, 3000 nM, 1000 nM, 300 nM, 100 nM, 30 nM, 10 nM) were added to the above cells, and the incubation was performed for 72 h. The inhibitory activity of the compounds was tested by measuring ATP in living cells using the Cell Titer Glo Kit (Promega).
(§4) The IC50 values of the compounds of the present invention for each tested cell were determined, and the test results are as follows: […]

[2] = tested on: human melanoma cell A375 (BRAF-V600E mutation); experiment: Cancer cell proliferation inhibition assay, A375; assay type: cell-based; details: A-375, 72 h incubation, Cell Titer Glo
Excerpt: as §1, §2, §3, §4

Row | SMILES | IC50 [1] | IC50 [2]
1 | Cc1ccc2c(Nc3ccc(CN(C)C)c(C(F)(F)F)c3)nccc2c1NC(=O)c1cnc2c(N)ncnn12 [Compound 62, 4-amino-N-(1-((4-((dimethylamino)methyl)-3-(trifluoromethyl)phenyl)amino)-6-methylisoquinolin-5-yl)imidazo[2,1-f][1,2,4]triazine-7-carboxamide] | 82.2 ± 10.1 nM | 49.1 ± 2.74 nM
2 | Cc1ccc2c(Nc3ccc4c(c3)CN(C)CC4)nccc2c1NC(=O)c1cccc2c(N)ncnc12 [Compound 82, 4-amino-N-(6-methyl-1-((2-methyl-1,2,3,4-tetrahydroisoquinolin-7-yl)amino)isoquinolin-5-yl)quinazoline-8-carboxamide] | 245 ± 27.3 nM | 141 ± 44.1 nM
3 | Cc1ccc2c(Nc3ccc4c(c3)OCCO4)nccc2c1NC(=O)c1cccc2c(N)ncnc12 [Compound 77, 4-amino-N-(1-((2,3-dihydrobenzo[b][1,4]dioxin-6-yl)amino)-6-methylisoquinolin-5-yl)quinazoline-8-carboxamide] | 51.4 ± 8.5 nM | 31.6 ± 7.42 nM
4 | Cc1ccc2c(Nc3cccc(OCCN4CCOCC4)c3F)nccc2c1NC(=O)c1cccc2c(N)ncnc12 [Compound 98, 4-amino-N-(1-((2-fluoro-3-(2-morpholinoethoxy)phenyl)amino)-6-methylisoquinolin-5-yl)quinazoline-8-carboxamide] | 63.7 ± 4.4 nM | –
5 | Cc1cc(C(=O)Nc2c(C)ccc3c(Nc4cccc(Cl)c4F)nccc23)c2ncnc(N)c2c1 [Compound 45, 4-amino-N-(1-((3-chloro-2-fluorophenyl)amino)-6-methylisoquinolin-5-yl)-6-methylquinazoline-8-carboxamide] | 64.3 ± 5.08 nM | 74.2 ± 3.5 nM
6 | Cc1ccc2c(Nc3c(F)c(F)cc(F)c3F)nccc2c1NC(=O)c1cccc2c(N)ncnc12 [Compound 95, 4-amino-N-(6-methyl-1-((2,3,5,6-tetrafluorophenyl)amino)isoquinolin-5-yl)quinazoline-8-carboxamide] | 69 ± 18.9 nM | –
7 | COc1ccc(Nc2nccc3c(NC(=O)c4cccc5c(N)ncnc45)c(C)ccc23)cc1 [Compound 57, 4-amino-N-(1-((4-methoxyphenyl)amino)-6-methylisoquinolin-5-yl)quinazoline-8-carboxamide] | 24.3 ± 3.3 nM | 66.1 ± 17 nM
8 | Cc1ccc2c(Nc3cccc(Cl)c3F)nccc2c1NC(=O)c1ccnc2c(N)ncnc12 [Compound 81, 4-amino-N-(1-((3-chloro-2-fluorophenyl)amino)-6-methylisoquinolin-5-yl)pyrido[3,2-d]pyrimidine-8-carboxamide] | 222 ± 29.8 nM | –
9 | COc1ccc(Nc2nccc3c(NC(=O)c4cccc5c(N)ncnc45)c(C)ccc23)cn1 [Compound 75, 4-amino-N-(1-((6-methoxypyridin-3-yl)amino)-6-methylisoquinolin-5-yl)quinazoline-8-carboxamide] | 34 ± 7.6 nM | 67.7 ± 15.1 nM
10 | COc1ccc(Nc2nccc3c(NC(=O)c4cnc5c(N)ncnn45)c(C)ccc23)cc1Cl [Compound 56, 4-amino-N-(1-((3-chloro-4-methoxyphenyl)amino)-6-methylisoquinolin-5-yl)imidazo[2,1-f][1,2,4]triazine-7-carboxamide] | 22.2 ± 2.9 nM | 67 ± 7.3 nM
11 | COc1ccc(Nc2nccc3c(NC(=O)c4cccc5c(N)ncnc45)c(C)ccc23)cc1OC [Compound 68, 4-amino-N-(1-((3,4-dimethoxyphenyl)amino)-6-methylisoquinolin-5-yl)quinazoline-8-carboxamide] | 109 ± 12.2 nM | 104 ± 20.6 nM
12 | Cc1ccc2c(Nc3cccc(Cl)c3F)nccc2c1NC(=O)c1cc(N2CCOCC2)cc2c(N)ncnc12 [Compound 53, 4-amino-N-(1-((3-chloro-2-fluorophenyl)amino)-6-methylisoquinolin-5-yl)-6-morpholinoquinazoline-8-carboxamide] | 113 ± 3.35 nM | 77.7 ± 2.3 nM
13 | Cc1ccc2c(C(O)c3ccccc3Cl)nccc2c1NC(=O)c1cccc2c(N)ncnc12 (stereo not drawn) [Compound 24, 4-amino-N-(1-((2-chlorophenyl)(hydroxy)methyl)-6-methylisoquinolin-5-yl)quinazoline-8-carboxamide] | – | 70.7 ± 6.15 nM
14 | Cc1ccc2c(Nc3cc(F)c(F)c(F)c3F)nccc2c1NC(=O)c1cccc2c(N)ncnc12 [Compound 96, 4-amino-N-(6-methyl-1-((2,3,4,5-tetrafluorophenyl)amino)isoquinolin-5-yl)quinazoline-8-carboxamide] | 119 ± 29.3 nM | –
15 | Cc1ccc2c(Nc3ccc(N(C)C)nc3)nccc2c1NC(=O)c1cccc2c(N)ncnc12 [Compound 59, 4-amino-N-(1-((6-(dimethylamino)pyridin-3-yl)amino)-6-methylisoquinolin-5-yl)quinazoline-8-carboxamide] | 211 ± 16.6 nM | 85 ± 5.2 nM
16 | Cc1ccc2c(Nc3ccc(C#N)cc3F)nccc2c1NC(=O)c1cccc2c(N)ncnc12 [Compound 78, 4-amino-N-(1-((4-cyano-2-fluorophenyl)amino)-6-methylisoquinolin-5-yl)quinazoline-8-carboxamide] | 56.4 ± 5.8 nM | 63.5 ± 2.6 nM
17 | Cc1ccc(Nc2nccc3c(NC(=O)c4cccc5c(N)ncnc45)c(C)ccc23)c(F)c1 [Compound 88, 4-amino-N-(1-((2-fluoro-4-methylphenyl)amino)-6-methylisoquinolin-5-yl)quinazoline-8-carboxamide] | 70.2 ± 9.8 nM | 55.4 ± 8 nM
18 | Cc1ccc2c(Nc3cccc(Cl)c3F)nccc2c1NC(=O)c1cc(O)cc2c(N)ncnc12 [Compound 76, 4-amino-N-(1-((3-chloro-2-fluorophenyl)amino)-6-methylisoquinolin-5-yl)-6-hydroxyquinazoline-8-carboxamide] | 147 ± 19.2 nM | 202 ± 5.74 nM
19 | Cc1ccc2c(Nc3cccc(Cl)c3F)nccc2c1NC(=O)c1cncc2c(N)ncnc12 [Compound 69, 4-amino-N-(1-((3-chloro-2-fluorophenyl)amino)-6-methylisoquinolin-5-yl)pyrido[4,3-d]pyrimidine-8-carboxamide] | 49.6 ± 9.7 nM | 94.6 ± 4 nM
20 | Cc1ccc2c(Nc3cccc(Cl)c3F)nccc2c1NC(=O)c1cnc2c(N)ncnn12 [Compound 30, 4-amino-N-(1-((3-chloro-2-fluorophenyl)amino)-6-methylisoquinolin-5-yl)imidazo[2,1-f][1,2,4]triazine-7-carboxamide] | 13.3 ± 0.9 nM | 89.3 ± 11.3 nM
21 | Cc1ccc2c(Nc3cc(Br)ccc3F)nccc2c1NC(=O)c1cccc2c(N)ncnc12 [Compound 91, 4-amino-N-(1-((5-bromo-2-fluorophenyl)amino)-6-methylisoquinolin-5-yl)quinazoline-8-carboxamide] | 140 ± 17 nM | 87.1 ± 10.4 nM
22 | CCOc1ccc(Nc2nccc3c(NC(=O)c4cccc5c(N)ncnc45)c(C)ccc23)c(F)c1 [Compound 74, 4-amino-N-(1-((4-ethoxy-2-fluorophenyl)amino)-6-methylisoquinolin-5-yl)quinazoline-8-carboxamide] | 62.3 ± 9.2 nM | 62.7 ± 12.5 nM
23 | Cc1ccc(Nc2nccc3c(NC(=O)c4cccc5c(N)ncnc45)c(C)ccc23)cc1 [Compound 65, 4-amino-N-(6-methyl-1-(p-tolylamino)isoquinolin-5-yl)quinazoline-8-carboxamide] | 38.8 ± 3 nM | 47.1 ± 9.4 nM
24 | CC(=O)c1ccc(Nc2nccc3c(NC(=O)c4cccc5c(N)ncnc45)c(C)ccc23)cc1 [Compound 63, N-(1-((4-acetylphenyl)amino)-6-methylisoquinolin-5-yl)-4-aminoquinazoline-8-carboxamide] | 28.6 ± 2.7 nM | 46.3 ± 1.79 nM
25 | COc1ccc(F)c(Nc2nccc3c(NC(=O)c4cccc5c(N)ncnc45)c(C)ccc23)c1 [Compound 87, 4-amino-N-(1-((2-fluoro-5-methoxyphenyl)amino)-6-methylisoquinolin-5-yl)quinazoline-8-carboxamide] | 37.7 ± 7.05 nM | 56 ± 2.5 nM
26 | Cc1ccc2c(Nc3ccc(Cl)cc3F)nccc2c1NC(=O)c1cnc2c(N)ncnn12 [Compound 55, 4-amino-N-(1-((4-chloro-2-fluorophenyl)amino)-6-methylisoquinolin-5-yl)imidazo[2,1-f][1,2,4]triazine-7-carboxamide] | 30.4 ± 4.3 nM | –
27 | Cc1ccc2c(Nc3cccc(Cl)c3F)nccc2c1NC(=O)c1cc(OCCO)cc2c(N)ncnc12 [Compound 86, 4-amino-N-(1-((3-chloro-2-fluorophenyl)amino)-6-methylisoquinolin-5-yl)-6-(2-hydroxyethoxy)quinazoline-8-carboxamide] | 48 ± 5.36 nM | 60.6 ± 2.8 nM
28 | Cc1ccc2c(Nc3cccc(Cl)c3F)nccc2c1NC(=O)c1cn(C)c2c(N)ncnc12 [Compound 101, 4-amino-N-(1-((3-chloro-2-fluorophenyl)amino)-6-methylisoquinolin-5-yl)-5-methyl-5H-pyrrolo[3,2-d]pyrimidine-7-carboxamide] | 81.1 ± 4.5 nM | –
29 | Cc1ccc2c(Nc3cccc(Cl)c3)nccc2c1NC(=O)c1cnc2c(N)ncnn12 [Compound 12, 4-amino-N-(1-((3-chlorophenyl)amino)-6-methylisoquinolin-5-yl)imidazo[2,1-f][1,2,4]triazine-7-carboxamide] | 13.9 ± 1.7 nM | –
30 | Cc1ccc2c(Nc3cc(F)ccc3F)nccc2c1NC(=O)c1cccc2c(N)ncnc12 [Compound 72, 4-amino-N-(1-((2,5-difluorophenyl)amino)-6-methylisoquinolin-5-yl)quinazoline-8-carboxamide] | 64.3 ± 12.3 nM | –
